Source: ChEMBL document CHEMBL5303573, “Mapping human microbiome drug metabolism by gut bacteria and their genes” (Nature, 2019)

Key:
[1] = The drug is tested on Bifidobacterium longum subsp. Infantis strain: CCUG52486 for biotransformation. The drug concentrations were measured before and after a 12-h incubation by liquid-chromatography-coupled mass spectrometry (LC–MS); settings: 2 µM
[2] = The drug is tested on Blautia luti strain: DSM14534 for biotransformation. The drug concentrations were measured before and after a 12-h incubation by liquid-chromatography-coupled mass spectrometry (LC–MS); assay type: ADME; design: dose 2 uM, timepoint 0 vs 12 hours; settings: 2 µM
[3] = The drug is tested on Ruminococcus gnavus strain: ATCC29149 for biotransformation. The drug concentrations were measured before and after a 12-h incubation by liquid-chromatography-coupled mass spectrometry (LC–MS); settings: mediterraneibacter gnavus, 2 µM
[4] = The drug is tested on Clostridium sp. strain: fecal isolate for biotransformation. The drug concentrations were measured before and after a 12-h incubation by liquid-chromatography-coupled mass spectrometry (LC–MS); settings: 2 µM
[5] = The drug is tested on Bacteroides fragilis strain: HMW610 for biotransformation. The drug concentrations were measured before and after a 12-h incubation by liquid-chromatography-coupled mass spectrometry (LC–MS); settings: 2 µM
[6] = The drug is tested on Alistipes indistinctus strain: DSM22520 for biotransformation. The drug concentrations were measured before and after a 12-h incubation by liquid-chromatography-coupled mass spectrometry (LC–MS); settings: 2 µM
[7] = The drug is tested on Anaerotruncus colihominis strain: DSM17241 for biotransformation. The drug concentrations were measured before and after a 12-h incubation by liquid-chromatography-coupled mass spectrometry (LC–MS); settings: 2 µM
[8] = The drug is tested on Collinsella intestinalis strain: DSM13280 for biotransformation. The drug concentrations were measured before and after a 12-h incubation by liquid-chromatography-coupled mass spectrometry (LC–MS); settings: 2 µM
[9] = anaerostipes sp., 12 h, 2 µM
Description: The drug is tested on Anaerostipes sp. strain: fecal isolate for biotransformation. The drug concentrations were measured before and after a 12-h incubation by liquid-chromatography-coupled mass spectrometry (LC–MS)

[10] = The drug is tested on Edwardsiella tarda strain: ATCC23685 for biotransformation. The drug concentrations were measured before and after a 12-h incubation by liquid-chromatography-coupled mass spectrometry (LC–MS); settings: 2 µM
[11] = The drug is tested on Bacteroides sp. WH2 strain: WH2 for biotransformation. The drug concentrations were measured before and after a 12-h incubation by liquid-chromatography-coupled mass spectrometry (LC–MS); settings: bacteroides sp. wh2, 12 h, 2 µM
[12] = The drug is tested on Bacteroides dorei strain: DSM17855 for biotransformation. The drug concentrations were measured before and after a 12-h incubation by liquid-chromatography-coupled mass spectrometry (LC–MS); settings: phocaeicola dorei, 2 µM
[13] = The drug is tested on Bacteroides cellulosilyticus strain: DSM14838 for biotransformation. The drug concentrations were measured before and after a 12-h incubation by liquid-chromatography-coupled mass spectrometry (LC–MS); settings: 2 µM
[14] = segatella copri, 12 h, 2 µM
Description: The drug is tested on Prevotella copri strain: DSM18205 for biotransformation. The drug concentrations were measured before and after a 12-h incubation by liquid-chromatography-coupled mass spectrometry (LC–MS)

[15] = bacteroides thetaiotaomicron, 12 h, 2 µM
Description: The drug is tested on Bacteroides thetaiotaomicron strain: 3731 for biotransformation. The drug concentrations were measured before and after a 12-h incubation by liquid-chromatography-coupled mass spectrometry (LC–MS)

[16] = parabacteroides distasonis, 12 h, 2 µM
Description: The drug is tested on Parabacteroides distasonis strain: ATCC8503 for biotransformation. The drug concentrations were measured before and after a 12-h incubation by liquid-chromatography-coupled mass spectrometry (LC–MS)

[17] = The drug is tested on Bacteroides pectinophilus strain: ATCC43243 for biotransformation. The drug concentrations were measured before and after a 12-h incubation by liquid-chromatography-coupled mass spectrometry (LC–MS); settings: 2 µM
[18] = bacteroides fragilis, 12 h, 2 µM
Description: The drug is tested on Bacteroides fragilis strain: NCTC 9343 for biotransformation. The drug concentrations were measured before and after a 12-h incubation by liquid-chromatography-coupled mass spectrometry (LC–MS)

[19] = bacteroides intestinalis, 12 h, 2 µM
Description: The drug is tested on Bacteroides intestinalis strain: DSM17393 for biotransformation. The drug concentrations were measured before and after a 12-h incubation by liquid-chromatography-coupled mass spectrometry (LC–MS)

[20] = The drug is tested on Providencia stuartii strain: ATCC25827 for biotransformation. The drug concentrations were measured before and after a 12-h incubation by liquid-chromatography-coupled mass spectrometry (LC–MS); settings: 2 µM

Measured: Bacterial Biotransformation

CC(=O)O[C@]1(C(C)=O)CC[C@H]2[C@@H]3C=C(Cl)C4=CC(=O)[C@@H]5C[C@@H]5[C@]4(C)[C@H]3CC[C@@]21C [CYPROTERONE ACETATE]
Compound NOT metabolized: [1] | [2] | [3] | [6] | [8] | [9] | [10] | [11] | [14]
not listed: [20]
Compound metabolized: all other assays above

OC(Cn1cncn1)(Cn1cncn1)c1ccc(F)cc1F [FLUCONAZOLE]
Compound metabolized: [3] | [4] | [5] | [7] | [12] | [18]
not listed: [15] | [19] | [20]
Compound NOT metabolized: all other assays above

CN1CCN(C2=Nc3ccccc3Oc3ccc(Cl)cc32)CC1.O=C(O)CCC(=O)O [LOXAPINE SUCCINATE]
not listed: [10] | [20]
Compound NOT metabolized: all other assays above

COC(=O)Nc1nc2ccc(C(=O)c3ccccc3)cc2[nH]1 [MEBENDAZOLE]
Compound metabolized: [4] | [5] | [12] | [16] | [18]
not listed: [2] | [14] | [20]
Compound NOT metabolized: all other assays above

CCc1nn(CCCN2CCN(c3cccc(Cl)c3)CC2)c(=O)n1CCOc1ccccc1 [NEFAZODONE]
not listed: [12]
Compound NOT metabolized: all other assays above

C#C[C@]1(OC(C)=O)CC[C@H]2[C@@H]3CCC4=CC(=O)CC[C@@H]4[C@H]3CC[C@@]21C [NORETHINDRONE ACETATE]
Compound NOT metabolized: [1] | [10] | [16]
not listed: [17] | [20]
Compound metabolized: all other assays above

C#C[C@]1(OC(C)=O)CC[C@H]2[C@@H]3CCC4=C/C(=N/O)CC[C@@H]4[C@H]3CC[C@@]21CC [NORGESTIMATE]
Compound metabolized: [4] | [12]
not listed: [16]
Compound NOT metabolized: all other assays above

Fc1ccc([C@@H]2CCNC[C@H]2COc2ccc3c(c2)OCO3)cc1 [PAROXETINE]
Compound metabolized: [4] | [7] | [9] | [13] | [15] | [17]
not listed: [12]
Compound NOT metabolized: all other assays above
